According to US4652646A, “Thiazolo[3,2-a][1,2,3]triazolo[4,5-d]pyrimidine and [1,3,4]thiadiazolo[3,2-a][1,2,3]triazolo[4,5-d]pyrimidine derivatives” (Daiichi Seiyaku Co., Ltd., priority 1984, dated 1987):

Legend:
[1] = test system: passive cutaneous anaphylaxis (PCA) reaction; experiment: Passive cutaneous anaphylaxis (PCA) test; format: in vivo, Sprague-Dowley male rats; conditions: 0.5 h; rat PCA; 20 mg/kg in 0.5% CMC, oral, 30 minutes before antigen challenge
Method: (§1) 1 mg of egg albumin dissolved in 0.2 ml of saline was intramuscularly administered to each of Sprague-Dawley male rats weighing 300 to 350 g (Charles River Japan Inc.), and then 1 ml of a suspension of sterilized Bordetella pertussis (2×10^10 cells) in saline was administered intraperitoneally to the rats. After 14 days, blood was drawn from the rats to obtain an antiserum.
In this test, the antiserum described in Test Example 1 was used after it was diluted with saline so as to provide a blue spot having a diameter of about 10 mm in the following control group.
Sprague-Dowley male rats weighing about 180 g (5 rats per group) were sensitized by injecting 0.05 ml of the diluted antiserum into the shaved dorsal skin. 48 hours later, the animals were challenged with 1 ml of saline containing 5 mg of egg albumin and 5 mg of Evans blue dye administered via a tail vein. 30 minutes later, the rats were sacrificed by decapitation. The dorsal skin was removed, and the long and short axis of the each wheal was measured.
In this test, the test compound was administered as follows. 20 mg of a test compound was suspended in a 0.5% CMC aqueous solution, and the suspension was administered to each of the rats in an amount of 20 mg/kg 30 minutes before the antigen challenge. For a control group, only a 0.5% CMC solution was administered.
The inhibitory activity on the PCA reaction in the treated group was calculated by the following formula: [formula] wherein: a represents a mean value of blue spot area in the control group.
b represents a mean value of blue spot area in the treated group.

[2] = test system: release of histamine induced by passive peritoneal anaphylaxis (PPA) reaction; experiment: Passive Peritoneal Anaphylaxis (PPA) test: inhibition of histamine release; format: in vivo, Sprague-Dawley male rats; conditions: ip, 5 min; rat PPA; 1 mg/kg intraperitoneally 30 seconds before egg albumin
Method: as §1
(§2) The test was conducted according to the method of Orange et al [Orange, R. P., Stechschulte, D. J., Austen, K. F., J. Immunol., 105, pp1087-1095 (1970)]. Sprague-Dawley male rats weighing 250 to 400 g (5 rats per group) were passively sensitized by administering 5 ml of 5-fold dilution antiserum (prepared by diluting the above antiserum with saline). 2 hours later, 5 ml of an egg albumin solution prepared by dissolving 2 mg of egg albumin in phosphate buffered saline containing 0.9 mM of calcium chloride was administered intraperitoneally to the rats. After 5 minutes, the rats were sacrificed by decapitation, and peritoneal fluid was pooled and centrifuged at 300×G at 4° C. for 10 minutes. Then, amounts of SRS-A and histamine in the supernatant were determined.
The quantitative determination of histamine was carried out according to the method of Shore et al [Shore, P. A., Bunkhalter, A. H., Cohn, V. H., J. Pharmacol. Exp. Ther., 127, pp182-186 (1959)], and the total released amount of histamine per rat (μg/rat) was calculated.
(§3) In this test, the test compound of this invention was administered as follows. 2 mg of a test compound was dissolved in 10 ml of phosphate buffered saline containing 0.9 mM of calcium chloride, an equimolar amount of sodium hydroxide to test compound, 2% of dimethyl sulfoxide and 2% of ethanol, and the solution was administered intraperitoneally to the rats at a dose of 1 mg/kg 30 seconds before the injection of egg albumin for inducing PPA. For a control group, the same solution without test compound and sodium hydroxide was administered.
(§4) The inhibitory activity on release of histamine and SRS-A by the PPA reaction in the treated group was calculated by the following formula: [formula] wherein: a represents a mean value of released amount in the control group.
(§5) b represents a mean value of released amount in the treated group.
(§6) c represents a mean value of spontaneously released amount.

[3] = test system: release of SRS-A induced by passive peritoneal anaphylaxis (PPA) reaction; experiment: Passive Peritoneal Anaphylaxis (PPA) test: inhibition of SRS-A release; format: in vivo, Sprague-Dawley male rats; conditions: ip, 5 min; rat PPA; 1 mg/kg intraperitoneally 30 seconds before egg albumin
Method: as §1, §2
The quantitative determination of SRS-A was carried out according to the method of Stechschulte et al [Stechschulte, D. J., Auste, K. F., Bloch, K. J., J. Exp. Med., 125, pp127-147 (1967)] using a guinea pig ileum specimen in the presence of mepyramine and atropine. The amount of SRS-A was expressed in terms of unit, i.e., one unit of SRS-A activity was defined as the concentration required to produce a contraction of guinea pig ileum equal in amplitude to that produced by 5 ng of histamine, and the total released amount of SRS-A per rat (unit/rat) was calculated.
as §3, §4, §5, §6

[4] = Acute oral toxicity (LD50) in rats; conditions: rat, in vivo, oral administration

SMILES	inhibition in vivo at 20 mg/kg [1]	inhibition in vivo at 1 mg/kg [2]	inhibition in vivo at 1 mg/kg [3]	LD50 [4]
COc1ccc(-c2cn3c(=O)c4[nH]nnc4nc3s2)cc1Cl [Example 73]	48%			
O=c1c2[nH]nnc2nc2sc(-c3ccc(C4CCCCC4)cc3)cn12 [Example 7]	40%			
O=c1c2[nH]nnc2nc2sc(-c3ccc4c(c3)OCO4)nn12 [Example 12]	36%	87%	52%	
O=c1c2[nH]nnc2nc2sc(-c3ccc4c(c3)CCCC4)nn12 [Example 83]	44%			
Cc1ccc(-c2nn3c(=O)c4[nH]nnc4nc3s2)o1 [Example 18]				> 2000 mg/kg
Cc1ccc(CCc2nn3c(=O)c4[nH]nnc4nc3s2)cc1 [Example 50]				> 2000 mg/kg
CC(C)c1ccc(-c2nn3c(=O)c4[nH]nnc4nc3s2)cc1 [Example 2]		85%	52%	
CC(C)(C)c1cccc(-c2nn3c(=O)c4[nH]nnc4nc3s2)c1 [Example 82]		82%	52%	
O=c1c2[nH]nnc2nc2sc(-c3ccccc3)cn12 [Example 8]		83%	37%	
CC(C)(C)c1ccc(-c2cn3c(=O)c4[nH]nnc4nc3s2)cc1 [Example 6]	36%			
O=c1c2[nH]nnc2nc2sc(Cc3ccc(F)cc3)nn12 [Example 45]	57%			
COc1ccc(Cc2nn3c(=O)c4[nH]nnc4nc3s2)cc1 [Example 44]		81%	70%	
O=c1c2[nH]nnc2nc2sc(-c3ccco3)nn12 [Example 17]	50%	82%	55%	> 2000 mg/kg
Cc1cccc(CCc2nn3c(=O)c4[nH]nnc4nc3s2)c1 [Example 49]				> 2000 mg/kg
O=c1c2[nH]nnc2nc2sc(-c3cc4c(s3)CCC4)nn12 [Example 33]	47%	82%	70%	
COc1cccc(-c2nn3c(=O)c4[nH]nnc4nc3s2)c1OC [Example 11]	32%	89%	66%	
O=c1c2[nH]nnc2nc2sc(-c3ccccc3)nn12 [Example 47]	38%			> 2000 mg/kg
O=c1c2[nH]nnc2nc2sc(COc3ccc(F)cc3)nn12 [Example 66]		89%	47%	
CCc1sc(-c2nn3c(=O)c4[nH]nnc4nc3s2)cc1C [Example 31]	32%			
O=c1c2[nH]nnc2nc2sc(-c3ccc(Cl)s3)nn12 [Example 32]	35%	87%	63%	
O=c1c2[nH]nnc2nc2sc(-c3cccc(F)c3)nn12 [Example 13]	34%			
O=c1c2[nH]nnc2nc2sc(Cc3ccccc3)nn12 [Example 42]	48%	99%	54%	> 2000 mg/kg
COc1ccc(-c2nn3c(=O)c4[nH]nnc4nc3s2)cc1 [Example 3]		93%	42%	
Cc1ccccc1CCc1nn2c(=O)c3[nH]nnc3nc2s1 [Example 48]				> 2000 mg/kg

SMILES	inhibition in vivo at 20 mg/kg [1]	inhibition in vivo at 1 mg/kg [2]	inhibition in vivo at 1 mg/kg [3]	LD50 [4]
O=c1c2[nH]nnc2nc2sc(-c3cccs3)nn12 [Example 23]	31%	84%	51%	> 2000 mg/kg
CCc1ccc(-c2nn3c(=O)c4[nH]nnc4nc3s2)s1 [Example 27]		81%	63%	
CC1CCc2sc(-c3nn4c(=O)c5[nH]nnc5nc4s3)cc2C1 (centres unmarked) [Example 36]	40%	83%	41%	
O=c1c2[nH]nnc2nc2sc(C3COc4ccccc4O3)nn12 (centres unmarked) [Example 41]		91%	62%	
O=c1c2[nH]nnc2nc2sc(-c3cccs3)cn12 [Example 75]	32%			
O=c1c2[nH]nnc2nc2sc(-c3cc4c(s3)CCCC4)nn12 [Example 35]	45%	88%	45%	
Cc1ccc(-c2nn3c(=O)c4[nH]nnc4nc3s2)cc1 [Example 80, 6-(4-Methylphenyl)-[1,3,4]thiadiazolo[3,2-a][1,2,3]triazolo[4,5-d]pyrimidin-9(1H)-one monohydrate]	31%	91%	42%	
CC(C)(C)c1ccc(Cc2nn3c(=O)c4[nH]nnc4nc3s2)cc1 [Example 43]		75%	59%	
O=c1c2[nH]nnc2nc2sc(COc3ccccc3)nn12 [Example 64]	33%			
O=c1c2[nH]nnc2nc2sc(CCc3ccc(Cl)cc3)nn12 [Example 55]				> 2000 mg/kg
O=c1c2[nH]nnc2nc2sc(-c3ccsc3)nn12 [Example 24]	45%			
O=c1c2[nH]nnc2nc2sc(CCc3ccc(F)cc3)nn12 [Example 53]				> 2000 mg/kg
O=c1c2[nH]nnc2nc2sc(CCc3ccccc3)nn12 [Example 9, 6-(2-Phenylethyl)-[1,3,4]thiadiazolo[3,2-a][1,2,3]triazolo[4,5-d]pyrimidin-9(1H)-one]	52%	80%	50%	> 2000 mg/kg
CC(C)(C)c1cc(-c2nn3c(=O)c4[nH]nnc4nc3s2)cs1 [Example 29]	39%			
O=c1c2[nH]nnc2nc2sc(CCc3cccc(Cl)c3)nn12 [Example 54]				> 2000 mg/kg
O=c1c2[nH]nnc2nc2sc(C=Cc3ccccc3)nn12 [Example 62]		94%	55%	
CC(C)(C)c1ccc(-c2nn3c(=O)c4[nH]nnc4nc3s2)cc1 [Example 1, 6-(4-tert-Butylphenyl)-[1,3,4]thiadiazolo[3,2-a][1,2,3]triazolo[4,5-d]pyrimidin-9(1H)-one]	46%	83%	64%	> 2000 mg/kg
CC(C)(C)c1ccc(-c2nn3c(=O)c4[nH]nnc4nc3s2)s1 [Example 28]	34%			
CC(C)(C)c1ccc(-c2nn3c(=O)c4[nH]nnc4nc3s2)o1 [Example 20]				> 2000 mg/kg
O=c1c2[nH]nnc2nc2sc(C3COc4ccccc4C3)nn12 (centres unmarked) [Example 39]	38%			
O=c1c2[nH]nnc2nc2sc(-c3ccc(Cl)o3)nn12 [Example 21]	35%			> 2000 mg/kg
CC(C)(C)c1ccc(OCCc2nn3c(=O)c4[nH]nnc4nc3s2)cc1 [Example 69]	34%			
O=c1c2[nH]nnc2nc2sc(CC(c3ccccc3)c3ccccc3)nn12 [Example 57]		86%	61%	
